Square brackets hold non-standard residues; d marks the D form. Peptide text beside a SMILES is read from it. Orn(N5-OH,N5-Ac) = CC(=O)N(O)CCC[C@H](N)C(=O)O
Key:
Format in all cases: cell-based, Aspergillus fumigatus
ΔsidA/ΔftrACEA17 = experiment: Growth of double mutant ΔsidA/ΔftrACEA17 on different iron sources; conditions: for growth of ΔsidA/ΔftrACEA17 on host iron compound as sole iron source: 10 μM as the sole iron source; for growth promotion of ΔsidA/ΔftrACEA17: high amounts
Experimental: 10^4 conidia of the respective strain were point-inoculated on AMM plates containing the respective iron source, and incubated for 48 h at 37° C. Blood agar was AMM containing 5% sheep blood.
To analyze the potential role of FtrA in iron uptake of A. fumigatus we deleted the encoding gene in ΔsidACEA17 by replacement with the hygromycin resistance (hph) marker (Punt (1987), loc. cit.).

ΔsidACEA17 [1] = experiment: Conidia production of ΔsidACEA17; conditions: without supplement 99% decrease
Experimental: (§1) FIG. 3: A. Growth phenotypes of wild type and mutant strains. […] 10^4 conidia of the respective strain were point-inoculated on AMM plates containing the respective iron source, and incubated for 48 h at 37° C. Blood agar was AMM containing 5% sheep blood.
(§2) To elucidate the role of sidA a gene deletion mutant from CEA17 by replacement with pyrG was constructed (Weidner (1998), loc. cit.).

[2] = tested on: ΔAf-sidA, OMO-deficient A. fumigatus strain; experiment: Radial growth of siderophore-negative ΔAf-sidA on Aspergillus minimal medium plates
From the text: As is described in the appended Examples below, to elucidate the function of Af-sidA, a deletion mutant for this gene was constructed. In the generated mutant allele of ΔAf-sidA, the entire coding region, 279 bp downstream and 137 bp upstream region of the gene was replaced by the hygromycine resistance (hph) marker. […] Consistent with reductive iron assimilation being responsible for the residual growth of ΔAf-sidA, the use of copper-deficient media or the addition of the copper-specific chelator bathocuproine disulfonic acid in a concentration of 30 μM decreased the radial growth rate of ΔAf-sidA 46% and 25% compared to the wt. The growth of ΔAf-sidA was increased to 84% and 99% by supplementation with 1.5 mM FeSO4 and 10 μM ferricrocin, respectively.
as §1

ΔsidACEA17 [3] = experiment: Growth sensitivity of ΔsidACEA17 to ferrous iron chelator
Experimental: as §1, §2

Δat1 = experiment: Radial growth of Δat1 in the presence of BPS; conditions: iron depleted conditions, BPS 200 μM, radial growth at 48 h
Experimental: as §1
(§3) FIG. 12: Growth phenotypes of wild type and Δat1, ΔsidD and Δat2 mutant strains. Growth assays were performed during iron replete conditions (+Fe, 10 μM FeSO4), iron depleted conditions (−Fe), iron depleted conditions in the presence of bathophenantroline-disulfonate (BPS, 200 μM) and on blood agar (blood) as described in FIG. 3, radial growth was scored at 48 h.
(§4) Bathophenantroline-disulfonic acid is an inhibitor of the reductive iron assimilatory system and the iron contained in blood agar cannot be readily used by the reductive iron assimilatory system.

ΔsidD = experiment: Radial growth of ΔsidD in the presence of BPS; conditions: iron depleted conditions, BPS 200 μM, radial growth at 48 h
Experimental: as §1, §3, §4

Δat2 = experiment: Radial growth of Δat2 in the presence of BPS; conditions: iron depleted conditions, BPS 200 μM, radial growth at 48 h
Experimental: as §1, §3, §4

## holotransferrin: host iron compound tested as sole iron source
ΔsidA/ΔftrACEA17
  growth of ΔsidA/ΔftrACEA17 on host iron compound as sole iron source: failed to grow

## iron chloride
ΔsidACEA17 [1]; supplementation with 1.5 mM
  conidia production of ΔsidACEA17: 35%

## O=S(=O)([O-])[O-].[Fe+2] [FeSO4]
[2]; supplementation with 1.5 mM
  growth of ΔAf-sidA compared to the wt: 84%
ΔsidACEA17 [1]; supplementation with 1.5 mM
  conidia production of ΔsidACEA17: 35%

## [Cl][Fe]([Cl])[Cl] [ferric iron]
ΔsidA/ΔftrACEA17
  growth promotion of ΔsidA/ΔftrACEA17: not

## CC(=O)N([O-])CCC[C@@H]1NC(=O)CNC(=O)[C@H](CO)NC(=O)CNC(=O)[C@H](CCCN([O-])C(C)=O)NC(=O)[C@H](CCCN([O-])C(C)=O)NC1=O.[Fe+3] [ferricrocin] (cyclo(GSG[Orn(N5-OH,N5-Ac)][Orn(N5-OH,N5-Ac)][Orn(N5-OH,N5-Ac)]))
[2]
  antagonism of growth inhibition by BPS and blood (FIG. 7): antagonist action
[2]; supplementation with 10 μM
  growth of ΔAf-sidA compared to the wt: 99%
ΔsidACEA17 [1]; supplementation with 10 μM
  conidia production of ΔsidACEA17: 125%
ΔsidA/ΔftrACEA17
  growth of ΔsidA/ΔftrACEA17 with siderophore in growth medium: unable to grow unless the growth medium contained ferricrocin

## hemin
ΔsidA/ΔftrACEA17
  growth of ΔsidA/ΔftrACEA17 on host iron compound as sole iron source: failed to grow

## [Fe+2] [ferrous iron]
ΔsidA/ΔftrACEA17
  growth promotion of ΔsidA/ΔftrACEA17: slight growth promotion

## O=S(=O)(O)c1ccc(-c2ccnc3c2ccc2c(-c4ccc(S(=O)(=O)O)cc4)ccnc23)cc1 [bathophenantroline disulfonate, bathophenanthroline disulfonic acid]
[2]
  growth of siderophore negative A fumigatus (FIG. 7): Growth inhibition
ΔsidACEA17 [3]
  sensitivity of ΔsidACEA17 to chelator: increased sensitivity
Δat1
  growth rate of Δat1: decreased growth rate
ΔsidD
  growth rate of ΔsidD: decreased growth rate
Δat2
  growth rate of Δat2: wild type growth rate

## Cc1cc(-c2ccc(S(=O)(=O)O)cc2)c2ccc3c(-c4ccc(S(=O)(=O)O)cc4)cc(C)nc3c2n1 [bathocuproine disulfonic acid]
[2]; addition of chelator at 30 μM
  radial growth rate of ΔAf-sidA compared to the wt: 25%

Reference: patent US20080152641A1, “Inhibitors of Siderophore Biosynthesis in Fungi” (Autria Wirtschaftsservice, priority 2004, published 2008)
